Data: US20240132484A1, “BROAD SPECTRUM ANTIVIRAL COMPOUNDS TARGETING THE SKI COMPLEX” (priority 2020, published 2024)
Values joined by “and” are separate entries in the source; they are usually repeats but may differ in a detail not shown here. Equal entries are not always repeated. Where two headings read alike, the source gives them in different places.

How the values were obtained:
cells (nuclei count) = conditions: for Relative cell count to DMSO controls, Average 1 μM / Relative cell count to DMSO controls, Average 5 μM / Relative cell count to DMSO controls, Average 10 μM / Relative cell count to DMSO controls, Average 25 μM / Relative cell count to DMSO controls, Average 50 μM: toxicity data, 100=DMSO control; for Toxicity Data, Average, Mean: average of Exp 1-3 (SMW475, SMW477, SMW478); for Relative cell count to DMSO controls, Average (for correlation analysis): average value over the 5 tested concentrations (1 to 50 uM)
SARS2 = assay type: cell-based, SARS-CoV-2; conditions: for Percentage Inhibition Average 1 μM / Screening data (Relative infection to DMSO controls) Average 1 μM: SARS2, 1 μM; for Screening data (Relative infection to DMSO controls) Average 1 μM / Screening data (Relative infection to DMSO controls) Average 5 μM / Screening data (Relative infection to DMSO controls) Average 10 μM / Screening data (Relative infection to DMSO controls) Average 25 μM / Screening data (Relative infection to DMSO controls) Average 50 μM / Average (relative infection to DMSO over the 5 tested concentrations): 100=DMSO control; for Percentage Inhibition Average 5 μM / Screening data (Relative infection to DMSO controls) Average 5 μM: SARS2, 5 μM; for Percentage Inhibition Average 10 μM / Screening data (Relative infection to DMSO controls) Average 10 μM: SARS2, 10 μM; for Percentage Inhibition Average 25 μM / Screening data (Relative infection to DMSO controls) Average 25 μM: SARS2, 25 μM; for Percentage Inhibition Average 50 μM / Screening data (Relative infection to DMSO controls) Average 50 μM: SARS2, 50 μM; for Average (relative infection to DMSO over the 5 tested concentrations): SARS2, average over 1 to 50 uM; for Infection Data, Average, Mean: average of Exp 1-3 (SMW475, SMW477, SMW478)

## COC(=O)c1csc(CN(CCN(C)C)Cc2ccsc2)c1 [SILCS31]
Cells (nuclei count)
  Relative cell count to DMSO controls, Average 1 μM: 113.44
  Relative cell count to DMSO controls, Average 5 μM: 114.77
  Relative cell count to DMSO controls, Average 10 μM: 109.5
  Relative cell count to DMSO controls, Average 25 μM: 102.57
  Relative cell count to DMSO controls, Average 50 μM: 96.45
  Relative cell count to DMSO controls, Average (for correlation analysis): 107.35
Cells (nuclei count); n 9, 1 uM
  Toxicity Data, Average, Mean: 113.44%
Cells (nuclei count); n 9, 5 uM
  Toxicity Data, Average, Mean: 114.77%
Cells (nuclei count); n 9, 10 uM
  Toxicity Data, Average, Mean: 109.50%
Cells (nuclei count); n 9, 25 uM
  Toxicity Data, Average, Mean: 102.57%
Cells (nuclei count); n 9, 50 uM
  Toxicity Data, Average, Mean: 96.45%
SARS2
  SARS2 antiviral activity: decrease in activity
  Percentage Inhibition Average 1 μM: 2.92%
  Screening data (Relative infection to DMSO controls) Average 1 μM: 97.08
  Percentage Inhibition Average 5 μM: 5.01%
  Screening data (Relative infection to DMSO controls) Average 5 μM: 94.99
  Percentage Inhibition Average 10 μM: −2.53%
  Screening data (Relative infection to DMSO controls) Average 10 μM: 102.53
  Percentage Inhibition Average 25 μM: 25.34%
  Screening data (Relative infection to DMSO controls) Average 25 μM: 74.66
  Percentage Inhibition Average 50 μM: 77.37%
  Screening data (Relative infection to DMSO controls) Average 50 μM: 22.63
  Average (relative infection to DMSO over the 5 tested concentrations): 78.38
SARS2; Exp 1 (SMW475), 1 uM, single well
  Percentage Infection Relative to Appropriate DMSO Control with Avg Background Subtraction: 89.46% and 114.99% and 104.36%
SARS2; Exp 1 (SMW475), 5 uM, single well
  Percentage Infection Relative to Appropriate DMSO Control with Avg Background Subtraction: 96.46% and 105.10% and 110.06%
SARS2; Exp 1 (SMW475), 10 uM, single well
  Percentage Infection Relative to Appropriate DMSO Control with Avg Background Subtraction: 122.44% and 140.70% and 131.42%
SARS2; Exp 1 (SMW475), 25 uM, single well
  Percentage Infection Relative to Appropriate DMSO Control with Avg Background Subtraction: 64.20% and 68.29% and 61.79%
SARS2; Exp 1 (SMW475), 50 uM, single well
  Percentage Infection Relative to Appropriate DMSO Control with Avg Background Subtraction: 27.95% and 23.70% and 21.94%
SARS2; Exp 2 (SMW477), 1 uM, single well
  Percentage Infection Relative to Appropriate DMSO Control with Avg Background Subtraction: 99.50% and 100.31% and 97.32%
SARS2; Exp 2 (SMW477), 5 uM, single well
  Percentage Infection Relative to Appropriate DMSO Control with Avg Background Subtraction: 126.44% and 106.51% and 105.32%
SARS2; Exp 2 (SMW477), 10 uM, single well
  Percentage Infection Relative to Appropriate DMSO Control with Avg Background Subtraction: 115.31% and 105.13% and 102.55%
SARS2; Exp 2 (SMW477), 25 uM, single well
  Percentage Infection Relative to Appropriate DMSO Control with Avg Background Subtraction: 73.95% and 82.92% and 76.95%
SARS2; Exp 2 (SMW477), 50 uM, single well
  Percentage Infection Relative to Appropriate DMSO Control with Avg Background Subtraction: 19.41% and 19.72% and 23.27%
SARS2; Exp 3 (SMW478), 1 uM, Greiner Celigo plates
  Percentage Infection Relative to Appropriate DMSO Control with Avg Background Subtraction: 90.68% and 87.75% and 89.34%
SARS2; Exp 3 (SMW478), 5 uM, Greiner Celigo plates
  Percentage Infection Relative to Appropriate DMSO Control with Avg Background Subtraction: 64.83% and 79.11% and 61.06%
SARS2; Exp 3 (SMW478), 10 uM, Greiner Celigo plates
  Percentage Infection Relative to Appropriate DMSO Control with Avg Background Subtraction: 63.55% and 89.71% and 51.99%
SARS2; Exp 3 (SMW478), 25 uM, Greiner Celigo plates
  Percentage Infection Relative to Appropriate DMSO Control with Avg Background Subtraction: 86.74% and 80.23% and 76.86%
SARS2; Exp 3 (SMW478), 50 uM, Greiner Celigo plates
  Percentage Infection Relative to Appropriate DMSO Control with Avg Background Subtraction: 26.23% and 18.61% and 22.87%
SARS2; n 9, 1 uM
  Infection Data, Average, Mean: 97.08%
SARS2; n 9, 5 uM
  Infection Data, Average, Mean: 94.99%
SARS2; n 9, 10 uM
  Infection Data, Average, Mean: 102.53%
SARS2; n 9, 25 uM
  Infection Data, Average, Mean: 74.66%
SARS2; n 9, 50 uM
  Infection Data, Average, Mean: 22.63%

## CC1=C(C(=O)NCc2ccccc2)C(c2scc3c2OCCO3)NC(=O)N1 (stereo not drawn) [SILCS66]
Cells (nuclei count)
  Relative cell count to DMSO controls, Average 1 μM: 98.81
  Relative cell count to DMSO controls, Average 5 μM: 109.01
  Relative cell count to DMSO controls, Average 10 μM: 93.98
  Relative cell count to DMSO controls, Average 25 μM: 90.79
  Relative cell count to DMSO controls, Average 50 μM: 84.65
  Relative cell count to DMSO controls, Average (for correlation analysis): 95.45
SARS2
  Percentage Inhibition Average 1 μM: −3.65%
  Screening data (Relative infection to DMSO controls) Average 1 μM: 103.65
  Percentage Inhibition Average 5 μM: 38.92%
  Screening data (Relative infection to DMSO controls) Average 5 μM: 61.08
  Percentage Inhibition Average 10 μM: −7.16%
  Screening data (Relative infection to DMSO controls) Average 10 μM: 107.16
  Percentage Inhibition Average 25 μM: −12.41%
  Screening data (Relative infection to DMSO controls) Average 25 μM: 112.41
  Percentage Inhibition Average 50 μM: −28.18%
  Screening data (Relative infection to DMSO controls) Average 50 μM: 128.18
  Average (relative infection to DMSO over the 5 tested concentrations): 102.50
